Results on 12 compounds are retold here after US12134610B2, “Somatostatin subtype-2 receptor (SST2R) targeted therapeutics and uses thereof” (priority 2022, dated 2024).

The first assay deals with T1, human somatostatin receptor subtype 2 (Homo sapiens, UniProt P30874).
T1 construct: expressed in transfected cells
T1 sequence (P30874 whole entry): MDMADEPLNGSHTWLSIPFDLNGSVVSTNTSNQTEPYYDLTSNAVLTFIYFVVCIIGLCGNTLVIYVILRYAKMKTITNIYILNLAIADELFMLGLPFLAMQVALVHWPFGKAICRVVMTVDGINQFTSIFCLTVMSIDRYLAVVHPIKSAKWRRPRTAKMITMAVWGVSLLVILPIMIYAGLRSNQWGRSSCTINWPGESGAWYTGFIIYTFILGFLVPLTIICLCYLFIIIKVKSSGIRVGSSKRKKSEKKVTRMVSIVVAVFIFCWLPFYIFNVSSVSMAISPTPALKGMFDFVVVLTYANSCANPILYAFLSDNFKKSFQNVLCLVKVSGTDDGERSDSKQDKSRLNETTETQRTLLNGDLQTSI
In words: Functional cAMP assay for SSTR2 agonists (HTRF) in CHO-K1 cells. Type of assay: cell-based. The conditions noted are these: CHO-K1 cells stably expressing human SST2, 20 min; read-out: hSST2 cAMP Avg EC50. From the text: General overview: All five SSTR subtypes are Gi coupled G-protein coupled receptors (GPCRs) that lead to decreases in intracellular cyclic AMP (cAMP) when activated by an agonist. Therefore, measurement of intracellular cAMP levels can be used to assess whether compounds of the invention are agonists of SSTR subtypes (John Kelly, Troy Stevens, W. Joseph Thompson, and Roland Seifert, Current Protocols in Pharmacology, 2005, 2.2.1-2.2). One example of an intracellular cAMP assay is described below.
Functional Assay for SSTR2 Agonists
Four days prior to the assay, 2,000 Chinese hamster ovary cells (CHO-K1, ATCC #CCL-61) stably expressing the human somatostatin receptor subtype 2 are plated in each well of a 96-well tissue culture-treated plate in Ham's F12 growth media (ThermoFisher #10-080-CM) supplemented with 10% donor bovine serum (Gemini Bio-Products #100-506), 100 U/mL penicillin; 100 ug/mL streptomycin; 2 mM L-glutamine (Gemini Bio-Products #400-110) and 0.2 mg/mL hygromycin B (GoldBio #31282-04-9). The cells are cultured at 37° C., 5% CO2 and 95% humidity. cAMP is measured with HTRF dynamic cAMP assay (Cisbio, #62AM5PEJ) per manufacturer's instructions. On the day of the assay, the media is aspirated and the cells are treated with 50 μL of stimulation buffer supplemented with 10.2 mM 3-Isobutyl-1-methylxanthine (IBMX, Millipore Sigma #15879) and 1.6 μM NKH477 (Tocris #1603), plus various dilutions of SMDCs of the present invention. The cells are incubated for 20 minutes at 37° C. (the final concentration of the compounds of the invention are typically 0-10,000 nM). The cells are treated with 50 μL of lysis buffer (HRTF cAMP kit, Cisbio) and incubated at room temperature for 30 minutes with rotary shaking at 600 rpm, and then diluted with 150 μL of stimulation buffer and shaken for an additional five minutes at 300 rpm. The lysate is transferred to 384-well plates and incubated for 1-24 hours at room temperature, and cAMP accumulation is detected by d2-labeled cAMP and Anti-cAMP-Cryptate. The time-resolved fluorescent signal is read using a m1000 Pro (Tecan) or CLARIOStar (BMG Labtech) microplate reader, where the samples are excited with light at 340 nm and emission light is measured at 620 nm and 665 nm. The data is expressed as a calculation of the fluorescence ratio (665 nm/620 nm). The intracellular cAMP concentrations are calculated by regression to a standard curve and are plotted vs. the concentration of the compounds of the invention. The EC50 of the compounds are calculated using standard methods. All data manipulations are in GraphPad Prism v9 (GraphPad, San Diego, CA).
On to `COCCOCCOCCOCCOCCC(=O)NCCNc1ncc(-c2cc(C)cc(F)c2)c(N2CCC(N)CC2)c1-c1nc2ccc(Cl)cc2[nH]1` [Compound 14, N-(2-{[4-(4-aminopiperidin-1-yl)-3-(6-chloro-1H-1,3-benzodiazol-2-yl)-5-(3-fluoro-5-methylphenyl)pyridin-2-yl]amino}ethyl)-2,5,8,11,14-pentaoxaheptadecan-17-amide], for which the EC50 is 0.048 nM. The same measure, in the same setting: then `Cc1cc(F)cc(-c2cnc(NCCNC(=O)CCOCCOCCOCCOCCOCCNC(=O)CN3CCN(CC(=O)O)CCN(CC(=O)O)CCN(CC(=O)O)CC3)c(-c3nc4cc(Cl)ccc4[nH]3)c2N2CCC(N)CC2)c1` [Comp. 1, 2-{7-[({17-[(2-{[4-(4-aminopiperidin-1-yl)-3-(5-chloro-1H-1,3-benzodiazol-2-yl)-5-(3-fluoro-5-methylphenyl)pyridin-2-yl]amino}ethyl)carbamoyl]-3,6,9,12,15-pentaoxaheptadecan-1-yl}carbamoyl)methyl}-4,10-bis(carboxymethyl)-1,4,7,10-tetraazacyclododecan-1-yl}acetic acid, reference compound], with 0.075 nM. The same measure, in the same setting: then `Cc1cc(F)cc(-c2cnc(NCCOCCOCCOCCOCCNC(=O)CN3CCN4CCN5CCN(CC3)CC(=O)[O][In]([O]C(=O)C4)[O]C(=O)C5)c(-c3ccc(C(F)(F)F)cc3)c2N2CCC(N)CC2)c1` [Compound 18, N-(14-{[4-(4-aminopiperidin-1-yl)-5-(3-fluoro-5-methylphenyl)-3-[4-(trifluoromethyl)phenyl]pyridin-2-yl]amino}-3,6,9,12-tetraoxatetradecan-1-yl)-2-{3,16,19-trioxo-2,17,18-trioxa-5,8,11,14-tetraaza-1-indatricyclo[9.6.3.2^5,^14]docosan-8-yl}acetamide], with 1.8 nM. On the same count and under the same terms, under `Cc1cc(F)cc(-c2cnc(NCCOC(=O)NCCOCCOCCOCCOCCOCCNC(=O)CN3CCN(CC(=O)O)CCN(CC(=O)O)CCN(CC(=O)O)CC3)c(-c3nc4cc(Cl)ccc4[nH]3)c2N2CCC(N)CC2)c1` [Comp. 2, 2-(7-{[(17-{[(2-{[4-(4-aminopiperidin-1-yl)-3-(5-chloro-1H-1,3-benzodiazol-2-yl)-5-(3-fluoro-5-methylphenyl)pyridin-2-yl]amino}ethoxy)carbonyl]amino}-3,6,9,12,15-pentaoxaheptadecan-1-yl)carbamoyl]methyl}-4,10-bis(carboxymethyl)-1,4,7,10-tetraazacyclododecan-1-yl)acetic acid, reference compound] stands 0.17 nM; under `Cc1cc(F)cc(-c2cnc(NCCOCCOCCOCCOCCNC(=O)CN3CCN(CC(=O)O)CCN(CC(=O)O)CCN(CC(=O)O)CC3)c(-c3ccc(C(F)(F)F)cc3)c2N2CCC(N)CC2)c1` [Compound 5, 2-(4-{[(14-{[4-(4-aminopiperidin-1-yl)-5-(3-fluoro-5-methylphenyl)-3-[4-(trifluoromethyl)phenyl]pyridin-2-yl]amino}-3,6,9,12-tetraoxatetradecan-1-yl)carbamoyl]methyl}-7,10-bis(carboxymethyl)-1,4,7,10-tetraazacyclododecan-1-yl)acetic acid], 0.66 nM. `Cc1cc(F)cc(-c2cnc(NCCCNC(=O)CCOCCOCCOCCOCCOCCNC(=O)CN3CCN(CC(=O)O)CCN(CC(=O)O)CCN(CC(=O)O)CC3)c(-c3nc4cc(Cl)ccc4[nH]3)c2N2CCC(N)CC2)c1` [Compound 3, 2-{7-[{{17-[(3-{[4-(4-aminopiperidin-1-yl)-3-(5-chloro-1H-1,3-benzodiazol-2-yl)-5-(3-fluoro-5-methylphenyl)pyridin-2-yl]amino}propyl)carbamoyl]-3,6,9,12,15-pentaoxaheptadecan-1-yl}carbamoyl)methyl]-4,10-bis(carboxymethyl)-1,4,7,10-tetraazacyclododecan-1-yl}acetic acid]: the EC50 was 0.14 nM. Still for that read-out and setting: under `Cc1cc(F)cc(-c2cnc(NCCNC(=O)CCOCCOCCOCCOCCOCCNC(=O)CN3CCN4CCN5CCN(CC3)CC(=O)[O][In]([O]C(=O)C4)[O]C(=O)C5)c(-c3nc4cc(Cl)ccc4[nH]3)c2N2CCC(N)CC2)c1` [Compound 15, N-(2-{[4-(4-aminopiperidin-1-yl)-3-(5-chloro-1H-1,3-benzodiazol-2-yl)-5-(3-fluoro-5-methylphenyl)pyridin-2-yl]amino}ethyl)-1-(2-{3,16,19-trioxo-2,17,18-trioxa-5,8,11,14-tetraaza-1-indatricyclo[9.6.3.2^5,14]docosan-8-yl}acetamido)-3,6,9,12,15-pentaoxaoctadecan-18-amide] stands 0.057 nM; under `Cc1cc(F)cc(-c2cnc(NCCCNC(=O)CCOCCOCCOCCOCCOCCNC(=O)CN3CCN4CCN5CCN(CC3)CC(=O)[O][In]([O]C(=O)C4)[O]C(=O)C5)c(-c3nc4cc(Cl)ccc4[nH]3)c2N2CCC(N)CC2)c1` [Compound 16, N-(3-{[4-(4-aminopiperidin-1-yl)-3-(5-chloro-1H-1,3-benzodiazol-2-yl)-5-(3-fluoro-5-methylphenyl)pyridin-2-yl]amino}propyl)-1-(2-{3,16,19-trioxo-2,17,18-trioxa-5,8,11,14-tetraaza-1-indatricyclo[9.6.3.2^5,^14]docosan-8-yl}acetamido)-3,6,9,12,15-pentaoxaoctadecan-18-amide], 0.11 nM. Still for that read-out and setting: then `Cc1cc(F)cc(-c2cnc(NC3CCN(C(=O)CCOCCOCCOCCOCCOCCOCCNC(=O)CN4CCN(CC(=O)O)CCN(CC(=O)O)CCN(CC(=O)O)CC4)CC3)c(-c3nc4cc(Cl)ccc4[nH]3)c2N2CCC(N)CC2)c1` [Compound 4, 2-[7-({[21-(4-{[4-(4-aminopiperidin-1-yl)-3-(5-chloro-1H-1,3-benzodiazol-2-yl)-5-(3-fluoro-5-methylphenyl)pyridin-2-yl]amino}piperidin-1-yl)-21-oxo-3,6,9,12,15,18-hexaoxahenicosan-1-yl]carbamoyl}methyl)-4,10-bis(carboxymethyl)-1,4,7,10-tetraazacyclododecan-1-yl]acetic acid], with 0.2 nM; and `Cc1cc(F)cc(-c2cnc(NC3CCN(C(=O)CCOCCOCCOCCOCCOCCOCCNC(=O)CN4CCN5CCN6CCN(CC4)CC(=O)[O][In]([O]C(=O)C5)[O]C(=O)C6)CC3)c(-c3nc4cc(Cl)ccc4[nH]3)c2N2CCC(N)CC2)c1` [Compound 17, N-[21-(4-{[4-(4-aminopiperidin-1-yl)-3-(5-chloro-1H-1,3-benzodiazol-2-yl)-5-(3-fluoro-5-methylphenyl)pyridin-2-yl]amino}piperidin-1-yl)-21-oxo-3,6,9,12,15,18-hexaoxahenicosan-1-yl]-2-{3,16,19-trioxo-2,17,18-trioxa-5,8,11,14-tetraaza-1-indatricyclo[9.6.3.2^5,^14]docosan-8-yl}acetamide], with 0.1 nM.

The same assay, now with this note: hSST2 cAMP Avg EC50 (nM), CHO-K1 cells stably expressing human SST2, 20 min.
Consider `CC[C@@]1(O)C(=O)OCc2c1cc1n(c2=O)Cc2c-1nc1cc(F)c(C)c3c1c2[C@@H](NC(=O)OCc1ccc(NC(=O)[C@H](CCCNC(N)=O)NC(=O)[C@@H](NC(=O)CCOCCC(=O)NCCNc2ncc(-c4cc(C)cc(F)c4)c(N4CCC(N)CC4)c2-c2nc4ccc(Cl)cc4[nH]2)C(C)C)c(O[C@@H]2O[C@H](C(=O)O)[C@@H](O)[C@H](O)[C@H]2O)c1)CC3` [Compound 73], for which the midpoint of the response, the EC50, lay at 0.49 nM. On the same count and under the same terms, then `CC[C@@]1(O)C(=O)OCc2c1cc1n(c2=O)Cc2c-1nc1cc(F)c(C)c3c1c2[C@@H](NC(=O)OCc1ccc(NC(=O)[C@H](CCCNC(N)=O)NC(=O)[C@@H](NC(=O)CCOCCOCCOCCOCCC(=O)NCCNc2ncc(-c4cc(C)cc(F)c4)c(N4CCC(N)CC4)c2-c2nc4ccc(Cl)cc4[nH]2)C(C)C)c(O[C@@H]2O[C@H](C(=O)O)[C@@H](O)[C@H](O)[C@H]2O)c1)CC3` [Compound 74], with 0.31 nM.

What is called EC50 is the concentration that produces a half-maximal response.
